Data published in patent US9593376B2, “Natural killer p30 (NKp30) dysfunction and the biological applications thereof” (INSTITUT GUSTAVE ROUSSY, priority 2008, dated 2017).
Structures can show the parent of a compound that is named as a salt.

Assays:
[1] = tested on: wild-type NCR3 gene splicing (NKp30 isoforms); test: Modulation of wild-type NCR3 gene splicing by antisense oligonucleotides; conditions: SEQ ID NO: 49-51 used in combination; no experiment described
[2] = tested on: NKp30 transcriptional profile (PBMC of GIST patients); test: NKp30 transcriptional profile stability in GIST patients during the course of imatinib mesylate treatment; assay type: in vivo, human; conditions: GIST therapy, spanning several years in some cases, four patients, FIG. 4
Text: FIG. 4. Representation of NKp30 transcriptional profile intra-individual stability in four GIST patients during the course of treatment
NKP30 transcriptional profile. NKp30 isoform proportions are shown as the ratio of the relative quantities of each isoform and the total quantity of the six isoforms. For each patient, the numbers in brackets represent the time post-treatment in months.
(§1) Total cellular RNA was isolated from PBMC and NK cell lines with the RNeasy kit (Qiagen). First strand cDNA was synthesized from 5 μg of total RNA using SuperScript™ II Reverse Transcriptase and random primers (Promega) according to Invitrogen's instructions.
For the “GIST patients and Healthy Volunteers” cohort, real time quantitative PCR amplifications were conducted using FastStart DNA Master SYBRGreen I Mix according to the manufacturer's instructions, with 0.3 μM primers, 2 mM MgCl2 and cDNAs, in a 20 μl final reaction volume. Thermocycling was performed using a LightCycler (Roche Molecular System) initiated by 10 min incubation at 95° C., followed by 38 cycles (95° C., 1 s; 65° C., 10 s; 72° C., 20 s). NKp30 mRNA expression level was normalized by dividing its relative mRNA amount with the corresponding GAPDH mRNA amount.

[3] = tested on: alternative splicing of NCR3 gene (NKp30 SHORT, INTER, LONG isoforms) in NK92 cells; test: Modulation of alternative splicing of NCR3 gene in NK92 cells (RT-PCR of NKp30 isoform proportions); assay type: cell-based, human; conditions: 2 μM with IL-2 (50 UI/ml), 36 h at 37° C., FIG. 14B
Experimental: (§2) FIG. 14. Modulation of alternative splicing of NCR3 gene with histone deacetylase inhibitors and DNA methyltransferase inhibitors (part A of experimental section)
(§3) NKp30 isoform proportions are shown as the ratio of the sum of WT—(variable Ig-like) and DEL—(constant Ig-like) extracellular domain relative quantities of each isoform (SHORT-, INTER- and LONG-tail isoforms) and the total quantity of the six isoforms.
(B) NK92 cells were seeded (5.10^5 NK/well) in 96 wells plates and incubated with 5-azacitidine (2 μM) (5AZA) and IL-2 (50 Ul/ml) for 36 h at 37° C.
as §1
(§4) Modulation of NCR3 Alternative Splicing by HDAC and Demethylating Agents.
NK92 cells were seeded (5.10^5 NK/well) in 96 wells plates and incubated with 5-azacitidine (2 μM) and IL-2 (50 Ul/ml) for 36 h at 37° C.
(§5) Several approaches modulating alternative splicing may be used to operate a switch from NKp30 INTER^Low/SHORT^High/LONG^High (identified as profile B following the first results obtained in the present study (part A.)) towards NKp30 INTER^High/SHORT^Low/LONG^Low (identified as profile A following the first results obtained in the present study (part A.)). […]

[4] = tested on: alternative splicing of NCR3 gene (NKp30 SHORT, INTER, LONG isoforms) in YTS cells; test: Modulation of alternative splicing of NCR3 gene in YTS cells (RT-PCR of NKp30 isoform proportions); assay type: cell-based, human; conditions: 100 nM, 45 h at 37° C., FIG. 14A
Experimental: as §2, §3
(A) YTS cells were seeded (5.10^5 NK/well) in 96 wells plates and incubated with trichostatine A (100 nM) (TSA) for 45 h at 37° C.
as §1, §4
YTS cells were seeded (5.10^5 NK/well) in 96 wells plates and incubated with trichostatine A (100 nM) for 45 h at 37° C.
as §5

Q: “antisense oligonucleotides corresponding to SEQ ID NO: 49-51: three antisense oligonucleotides used in combination: target polyadenylation signal 1, polyadenylation site 1, and INTER blocking (antisense 1 GGGGCAGATTTATTGGGGTC; antisense 2 CTCATGAGGAGTTAGTGGT; antisense 3 GTGACAGTGGCCTGGTCAGA; listed as DNA, chemistry not given here)” was tested. Which “Representation of NKp30 INTER, SHORT and LONG isoforms compared to reference or mean values” [1] did it give?
A: significant (relative) under-representation of NKp30 INTER isoforms associated with a relative over-representation of NKp30 SHORT and LONG isoforms

Q: `Cc1ccc(NC(=O)c2ccc(CN3CCN(C)CC3)cc2)cc1Nc1nccc(-c2cccnc2)n1` [imatinib mesylate] was tested. Which “Modulation of the pattern of NKp30 expression overtime” value [2] did it give?
A: did not appear to modulate the pattern of NKp30 expression overtime

Q: How did the “Proportions of NKp30 INTER, SHORT and LONG isoforms” value [3] turn out when `Nc1ncn([C@@H]2O[C@H](CO)[C@@H](O)[C@H]2O)c(=O)n1` [5-azacitidine] was run?
A: significant over-representation of INTER isoforms associated with an under-representation of SHORT and LONG isoforms

Q: Which “Proportions of NKp30 INTER, SHORT and LONG isoforms” value [4] does the source give for `CC(/C=C/C(=O)NO)=C\[C@@H](C)C(=O)c1ccc(N(C)C)cc1` [trichostatin A] here?
A: significant over-representation of INTER isoforms associated with an under-representation of SHORT and LONG isoforms
